Where two headings read alike, the source gives them in different places.

Assay [1] deals with T1, West Nile Virus (WNV) NS2B-NS3 protease (West Nile virus, UniProt Q9Q6P4).
T1 construct: NS2B1423-1470); purchased R&D 2907-SE-020
Briefly: WNV protease inhibition assay. Format: biochemical. The conditions noted are these: Table 4; letter codes for IC50. An excerpt: WNV protease inhibition assay

For the next assay, the system named is ZIKV replicon. The experiment in a line: ZIKV replication inhibition assay (NanoLuc replicon in Vero cells). The note with it: 72 h. Background: A replicon is a self-replicating genome or part of one, used to study replication in cells.
Setting [2] is: Zika virus, Vero, read-out: ZIKA Cell_Nanoluc.
Setting [3] is: read-out: ZIKA Cell_Nanoluc, Vero cells with stable ZIKV replicon, Nano-Glo readout.
The mark [4] stands for this setting: Zika virus, Vero, read-out: ZIKA Cell_Nanoluc, Vero cells with stable ZIKV replicon, 72 h, Nano-Glo readout.

T1 sequence (Q9Q6P4 1423-1470): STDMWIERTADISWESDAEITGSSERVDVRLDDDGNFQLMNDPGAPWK
T1 sequence (Q9Q6P4 1506-1689): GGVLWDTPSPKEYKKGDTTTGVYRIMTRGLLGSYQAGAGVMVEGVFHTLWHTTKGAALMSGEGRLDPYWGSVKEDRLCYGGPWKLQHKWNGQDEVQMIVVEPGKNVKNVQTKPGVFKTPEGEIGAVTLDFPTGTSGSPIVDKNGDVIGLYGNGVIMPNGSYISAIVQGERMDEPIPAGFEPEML

One may read the IC50 as the midpoint of a concentration-inhibition curve. A lower IC50 goes with inhibition by little substance. Consider `CC(C(=O)Nc1cc(NC(=O)[N-]c2c[n+]([C@H]3CC[C@H](CN(C)C)CC3)no2)cc(C(F)(F)F)c1)c1ccccc1Cl` (stereo partly drawn) [Example 205, ((3-(2-(2-Chlorophenyl)propanamido)-5-(trifluoromethyl)phenyl)carbamoyl)(3-((1R,4R)-4-((dimethylamino)methyl)cyclohexyl)-1,2,3-oxadiazol-3-ium-5-yl)amide], for which the IC50 in assay [1] lay in the range of 100 to 1000 nM. Further, the EC50 in the assay on ZIKV replicon (setting [2]) is 1000 to 20000 nM.
With “((3-(2-(3-(Carboxymethyl)phenyl)acetamido)-5-(trifluoromethyl)phenyl)carbamoyl)(3-((1R,4R)-4-((dimethylamino)methyl)cyclohexyl)-1,2,3-oxadiazol-3-ium-5-yl)amide [Example 155]”, the IC50 in assay [1] was in the range of 100 to 1000 nM. Also, the EC50 with ZIKV replicon (setting [3]) lay in the range of 1000 to 20000 nM.
With `CN(C)C[C@H]1CC[C@H]([n+]2cc([N-]C(=O)Nc3cc(NC(=O)Cc4ccccc4C(F)(F)F)cc(C(F)(F)F)c3)on2)CC1` [Example 166, (3-((1R,4R)-4-((Dimethylamino)methyl)-cyclohexyl)-1,2,3-oxadiazol-3-ium-5-yl)((3-(trifluoromethyl)-5-(2-(2-(trifluoromethyl)-phenyl)acetamido)phenyl)carbamoyl)amide], the IC50 in assay [1] lay in the range of 100 to 1000 nM. The EC50 with ZIKV replicon (setting [2]) lay within 1000 to 20000 nM.
Compound `Cc1ccccc1CC(=O)Nc1cc(NC(=O)[N-]c2c[n+]([C@@H]3CCC[C@H](N(C)C)C3)no2)cc(C(F)(F)F)c1` [Example 202, (3-((1R,3S)-3-(Dimethylamino)cyclohexyl)-1,2,3-oxadiazol-3-ium-5-yl)((3-(2-(o-tolyl)acetamido)-5-(trifluoromethyl)phenyl)-carbamoyl)amide] came in with an IC50 in assay [1] of 100 to 1000 nM. Moreover, the EC50 in the assay on ZIKV replicon (setting [4]) was 1000 to 20000 nM.
Compound `O=C([N-]c1c[n+](C[C@H]2CC[C@@H](c3cncnc3)CC2)no1)Nc1cccc(C(F)(F)F)c1` [Example 179, (3-(((1S,4S)-4-(Pyrimidin-5-yl)cyclohexyl)-methyl)-1,2,3-oxadiazol-3-ium-5-yl)((3-(trifluoromethyl)phenyl)carbamoyl)amide] registered an IC50 in assay [1] of 1000 to 20000 nM. Moreover, in the assay with ZIKV replicon (setting [2]), the EC50 was 1000 to 20000 nM.
Consider `CN(C)C[C@H]1CC[C@H]([n+]2cc([N-]C(=O)Nc3cc(NC(=O)Cc4cccc(Cl)c4)cc(C(F)(F)F)c3)on2)CC1` [Example 176, ((3-(2-(3-Chlorophenyl)acetamido)-5-(trifluoromethyl)phenyl)carbamoyl)(3-((1R,4R)-4-((dimethylamino)methyl)cyclohexyl)-1,2,3-oxadiazol-3-ium-5-yl)amide], for which, in assay [1], the 50% inhibitory concentration (IC50) fell in the range of 100 to 1000 nM. The EC50 in the assay on ZIKV replicon (setting [2]) lay within 1000 to 20000 nM.
For `CN(C)C[C@H]1CC[C@H]([n+]2cc([N-]C(=O)Nc3cc(NC(=O)C(F)c4ccccc4F)cc(C(F)(F)F)c3)on2)CC1` (stereo partly drawn) [Example 194, (3-((1R,4R)-4-((Dimethylamino)methyl)-cyclohexyl)-1,2,3-oxadiazol-3-ium-5-yl)((3-(2-fluoro-2-(2-fluorophenyl)acetamido)-5-(trifluoromethyl)phenyl)carbamoyl)amide] the same measures were 100 to 1000 nM and below 100 nM.
Take `Cc1ncnc(C)c1-c1ccc(C[n+]2cc([N-]C(=O)Nc3ccc(C#N)c(C(F)(F)F)c3)on2)cc1` [Example 207, ((4-Cyano-3-(trifluoromethyl)phenyl)-carbamoyl)(3-(4-(4,6-dimethylpyrimidin-5-yl)benzyl)-1,2,3-oxadiazol-3-ium-5-yl)amide]: the IC50 in assay [1] lay in the range of 100 to 1000 nM. In addition, the EC50 in the assay with ZIKV replicon (setting [4]) was 100 to 1000 nM.
Regarding `Cc1nc(N)ncc1-c1ccc(C[n+]2cc([N-]C(=O)Nc3ccnc(C(F)(F)F)c3)on2)cc1` [Example 260, (3-(4-(2-Amino-4-methylpyrimidin-5-yl)benzyl)-1,2,3-oxadiazol-3-ium-5-yl)((2-(trifluoromethyl)pyridin-4-yl)carbamoyl)amide], in assay [1], the IC50 is below 100 nM. Also, the EC50 in the assay on ZIKV replicon (setting [4]) was below 100 nM.
`CN(C)C[C@H]1CC[C@H]([n+]2cc([N-]C(=O)Nc3cc(N4CCC(c5ccccc5)C4=O)cc(C(F)(F)F)c3)on2)CC1` (stereo partly drawn) [Example 148, (3-((1R,4R)-4-((Dimethylamino)methyl)-cyclohexyl)-1,2,3-oxadiazol-3-ium-5-yl)((3-(2-oxo-3-phenylpyrrolidin-1-yl)-5-(trifluoromethyl)-phenyl)carbamoyl)amide] gave an IC50 in assay [1] of 100 to 1000 nM. For the same compound, the EC50 in the assay on ZIKV replicon (setting [2]) was 1000 to 20000 nM.
For `Cc1ccccc1CC(=O)Nc1cc(NC(=O)[N-]c2c[n+]([C@H]3CC[C@H](CO)CC3)no2)cc(C(F)(F)F)c1` [Example 228, (3-((1R,4R)-4-(Hydroxymethyl)cyclohexyl)-1,2,3-oxadiazol-3-ium-5-yl)((3-(2-(o-tolyl)acetamido)-5-(trifluoromethyl)phenyl)carbamoyl)amide] the same measures were 100 to 1000 nM and 100 to 1000 nM.
The compound `CC(=O)Nc1ccc(NC(=O)[N-]c2c[n+](Cc3ccc(-c4c(C)ncnc4C)cc3)no2)cc1C(F)(F)F` [Example 264, ((4-Acetamido-3-(trifluoromethyl)phenyl)-carbamoyl)(3-(4-(4,6-dimethylpyrimidin-5-yl)benzyl)-1,2,3-oxadiazol-3-ium-5-yl)amide] yielded an IC50 in assay [1] below 100 nM. Also, the EC50 with ZIKV replicon (setting [4]) was below 100 nM.
`CN(C)C[C@H]1CC[C@H]([n+]2cc([N-]C(=O)Nc3cc(N(C)C(=O)Cc4ccccc4)cc(C(F)(F)F)c3)on2)CC1` [Example 172, (3-((1R,4R)-4-((Dimethylamino)methyl)-cyclohexyl)-1,2,3-oxadiazol-3-ium-5-yl)((3-(N-methyl-2-phenylacetamido)-5-(trifluoromethyl)-phenyl)carbamoyl)amide] showed an IC50 in assay [1] of 100 to 1000 nM. Moreover, the EC50 in the assay with ZIKV replicon (setting [2]) lay within 1000 to 20000 nM.
In turn, `Cc1ncnc(C)c1-c1ccc(C[n+]2cc([N-]C(=O)N[C@H]3CC[C@H](C(F)(F)F)C3)on2)cc1` [Example 233, (3-(4-(4,6-Dimethylpyrimidin-5-yl)benzyl)-1,2,3-oxadiazol-3-ium-5-yl)(((1S,3S)-3-(trifluoromethyl)cyclopentyl)carbamoyl)amide] returned an IC50 in assay [1] of 100 to 1000 nM. Besides, the EC50 in the assay with ZIKV replicon (setting [4]) was in the range of 100 to 1000 nM.
Regarding `COC(=O)c1ccc(NC(=O)[N-]c2c[n+](Cc3ccc(-c4c(C)ncnc4C)cc3)no2)cc1C(F)(F)F` [Example 262, (3-(4-(4,6-Dimethylpyrimidin-5-yl)benzyl)-1,2,3-oxadiazol-3-ium-5-yl)((4-(methoxy-carbonyl)-3-(trifluoromethyl)phenyl)carbamoyl) amide], the IC50 in assay [1] was in the range of 100 to 1000 nM. Moreover, the EC50 in the assay with ZIKV replicon (setting [4]) is 100 to 1000 nM.
“(3-((1R,4R)-4-((Dimethylamino)methyl)-cyclohexyl)-1,2,3-oxadiazol-3-ium-5-yl)((3-(2-(3- methoxyphenyl)acetamido)-5-(trifluoromethyl)- phenyl)carbamoyl)amide [Example 152]” showed an IC50 in assay [1] of 100 to 1000 nM. In the assay on ZIKV replicon (setting [3]), the EC50 was 1000 to 20000 nM.
The compound `Cc1ccccc1CC(=O)Nc1cc(NC(=O)[N-]c2c[n+]([C@H]3CC[C@H](C(C)(C)O)CC3)no2)cc(C(F)(F)F)c1` [Example 206, (3-((1R,4R)-4-(2-Hydroxypropan-2-yl)cyclohexyl)-1,2,3-oxadiazol-3-ium-5-yl)((3-(2-(o-tolyl)acetamido)-5-(trifluoromethyl)phenyl)-carbamoyl)amide] gave an IC50 in assay [1] below 100 nM. Also, the EC50 with ZIKV replicon (setting [2]) lay within 100 to 1000 nM.
In turn, `Cc1ccccc1CC(=O)Nc1cc(NC(=O)[N-]c2c[n+]([C@H]3CC[C@H](C(=O)O)CC3)no2)cc(C(F)(F)F)c1` [Example 229, (3-((1R,4R)-4-Carboxycyclohexyl)-1,2,3-oxadiazol-3-ium-5-yl)((3-(2-(o-tolyl)acetamido)-5-(trifluoromethyl)phenyl)carbamoyl)amide] had an IC50 in assay [1] of 100 to 1000 nM. Moreover, the EC50 in the assay on ZIKV replicon (setting [2]) is 1000 to 20000 nM.
`O=C([N-]c1c[n+](CC23CC(c4cncnc4)(C2)C3)no1)Nc1cccc(C(F)(F)F)c1` [Example 183, (3-((3-(Pyrimidin-5-yl)bicyclo[1.1.1]pentan-1-yl)methyl)-1,2,3-oxadiazol-3-ium-5-yl)((3-(trifluoromethyl)phenyl)carbamoyl)amide] registered an IC50 in assay [1] of 100 to 1000 nM. The EC50 in the assay with ZIKV replicon (setting [4]) lay within 100 to 1000 nM.
In assay [1], `O=C([N-]c1c[n+](Cc2ccc(-c3cncnc3)cc2)no1)Nc1ccnc(C(F)(F)F)c1` [Example 266, (3-(4-(Pyrimidin-5-yl)benzyl)-1,2,3-oxadiazol-3-ium-5-yl)((2-(trifluoromethyl)pyridin-4-yl)carbamoyl)amide] registered an IC50 below 100 nM. Also, the EC50 in the assay with ZIKV replicon (setting [3]) is below 100 nM.
As for `Cc1ccccc1CC(=O)Nc1cc(NC(=O)[N-]c2c[n+]([C@@H]3CCC[C@H](C(=O)N(C)C)C3)no2)cc(C(F)(F)F)c1` [Example 234, (3-((1R,3S)-3-(Dimethylcarbamoyl)cyclohexyl)-1,2,3-oxadiazol-3-ium-5-yl)((3-(2-(o-tolyl)-acetamido)-5-(trifluoromethyl)phenyl)-carbamoyl)amide], the IC50 in assay [1] was in the range of 100 to 1000 nM. In addition, the EC50 in the assay with ZIKV replicon (setting [4]) is 1000 to 20000 nM.
As to `CN(C)C[C@H]1CC[C@H]([n+]2cc([N-]C(=O)Nc3cc(NC(=O)Cc4ccccc4O)cc(C(F)(F)F)c3)on2)CC1` [Example 191, (3-((1R,4R)-4-((Dimethylamino)methyl)-cyclohexyl)-1,2,3-oxadiazol-3-ium-5-yl)((3-(2-(2-hydroxyphenyl)acetamido)-5-(trifluoromethyl)-phenyl)carbamoyl)amide], in assay [1], the IC50 fell in the range of 1000 to 20000 nM. In the assay on ZIKV replicon (setting [2]), the EC50 was below 100 nM.
As for `Cc1nc(-c2ccc(C[n+]3cc([N-]C(=O)Nc4ccnc(C(F)(F)F)c4)on3)cc2)cs1` [Example 210, (3-(4-(2-Methylthiazol-4-yl)benzyl)-1,2,3-oxadiazol-3-ium-5-yl)((2-(trifluoromethyl)pyridin-4-yl)carbamoyl)amide], in assay [1], the IC50 is 100 to 1000 nM. Besides, the EC50 in the assay with ZIKV replicon (setting [4]) lay within 1000 to 20000 nM.
In the same order, the values of `Cc1ccccc1CC(=O)Nc1cc(NC(=O)[N-]c2c[n+]([C@H]3CCCC[C@H]3O)no2)cc(C(F)(F)F)c1` [Example 240, (3-((1S,2R)-2-Hydroxycyclohexyl)-1,2,3-oxadiazol-3-ium-5-yl)((3-(2-(o-tolyl)acetamido)-5-(trifluoromethyl)phenyl)carbamoyl)amide] are 100 to 1000 nM and 1000 to 20000 nM.

(Values after patent EP4563146A1 (IRBM S.P.A., priority 2023, dated 2025).)
